In US9174960B2, “Compounds useful against kinetoplastideae parasites” (CENTRE NATIONAL DE LA RECHERCHE SCIENTIFIQUE, priority 2009, dated 2015):
Where a name gives a salt, the structure may show the parent alone. Read-outs that look alike come from different tables or passages of the source.

What was measured:
[1] = test system: Leishmania infantum MHOM/MA (BE)/67 strain; assay: In vitro Leishmania infantum assay, intracellular amastigotes in primary peritoneal mouse macrophages; format: cell-based; details: L. infantum amastigotes in mouse macrophages, 5 d incubation, reference drug, read-out: IC50 (50% inhibitory concentration), reduction in parasite burden
Experimental: (§1) The Leishmania infantum MHOM/MA (BE)/67 strain is used. The strain is maintained in the Golden Hamster and spleen amastigotes are collected for preparing infection inocula. Primary peritoneal mouse macrophages are used as host cell and are collected 2 d after peritoneal stimulation with a 2% potato starch suspension. […] After 5 d incubation, parasite burdens (mean number of amastigotes/macrophage) are microscopically assessed after Giemsa staining.

MRC-5SV2 cells = assay: Cytotoxicity against human cell lines (resazurin); details: human lung fibroblasts MRC-5
[2] = test system: Trypanosoma cruzi, Tulahuen CL, β galactosidase strain (nifurtimox-sensitive); assay: In vitro Trypanosoma cruzi assay on MRC-5 cells (CPRG); format: cell-based; details: for trypanocidal activity against T. cruzi (in words): in vitro
Experimental: Trypanosoma cruzi, Tulahuen CL, β galactosidase strain (nifurtimox-sensitive) is used. The strain is maintained on MRC-5SV2 (human lung fibroblast) cells in MEM medium, supplemented with […] L-glutamine, 16.5 mM NaHCO3, and 5% FCSi. All cultures and assays are conducted at 37° C. under an atmosphere of 5% CO2. Assays are performed in sterile 96-well microtiter plates, each well containing 10 μl of the watery compound dilutions together with 190 μl of MRC-5 cell/parasite inoculum (2·10^4 cells/ml±2·10^5 parasites/ml). Parasite growth is compared to untreated-infected controls (100% growth) and non-infected controls (0% growth) after 7 d incubation. Parasite burdens are assessed after adding the substrate CPRG (chlorophenolred β-D-galactopyranoside): 50 μl/well of a stock solution containing 15.2 mg CPRG+250 μl Nonidet in 100 ml PBS. The change in color is measured spectrophotometrically at 540 nm after 4 h incubation at 37° C.

[3] = test system: Trypanosoma brucei brucei Squib 427 strain (suramin-sensitive); assay: In vitro Trypanosoma brucei brucei growth assay (resazurin); format: cell-based
Experimental: The strain is maintained in Hirumi (HMI-9) medium, supplemented with 10% FCSi. […] After 3 d incubation, parasite growth is assessed fluorimetrically after addition of resazurin. After 24 h at 37° C., fluorescence is measured (λex 550 nm, λem 590 nm).

[4] = test system: Trypanosoma brucei brucei CMP (fast strain); assay: Trypanocidal activity in vivo in T. brucei-infected mice; details: T. brucei-infected Swiss mice
Experimental: Animals: Swiss mice (female 18-20 g, Janvier, Le Genest St Isle, France) are randomly allocated to groups of 6 animals each. Drinking water and food are available ad libitum throughout the experiment (except when the treatment is given by oral route; in this condition, the treatment is given after 12 h of animal fasting).
Parasite: Trypanosoma brucei brucei CMP (fast strain) is maintained in the laboratory by mechanical intraperitoneal sub-passage every three days in Swiss mice. The infection inoculum is prepared by taking blood collected from a clinically ill donor mouse and diluted in pH 7.2 PBS to obtain an infection inoculum of about 10^5 trypanosomes/ml suspension. Mice are infected by intraperitoneal injection of 0.1 ml of parasite suspension (=10^4 parasites).
Test substances: The reference compound is melarsoprol.
Test compounds are analytically pure compounds.
Formulations: The compounds are formulated in 100% DMSO. Clear solutions should be obtained. The stock solution is divided in aliquots and stored at −20° C. until use. Aliquots are thawed immediately before treatment. The reference compound melarsoprol is formulated in PBS and stored at −20° C.
Treatment: The first dosing with the test compounds was given approx. 3 hours after artificial infection. • Melarsoprol (Arsobal®): 6 infected mice intraperitoneally treated with 1 mg/kg×4 consecutive days. • Test compounds: 6 infected mice per AMTD×1-5 consecutive days. • Controls: 10 infected mice receiving vehicle only (0.1-0.2 ml) Evaluation Parameters:
Parasitemia was checked microscopically from blood collected at the tail of the mice 2 days after the treatment, and every two days until 30 days post-treatment in case of survival. The trypanocidal activity was evaluated by the mean survival time of treated mice for each dose comparatively to survival time of mice treated with the vehicle alone. Treatment was considered to be successful when the mean survival time exceeds 30 days and the mice remains aparasitemic. […] Cure rate are expressed as percentages.

[5] = test system: Primary peritoneal mouse macrophages; assay: Toxicity against mouse macrophages (host cells of the L. infantum assay); format: cell-based; details: mouse macrophages (L. inf)
Experimental: as §1

[6] = Stability of the compound (HPLC analysis, light); format: physicochemical
[7] = test system: procyclic forms of T. b. brucei; details: cited from earlier work
[8] = test system: promastigotes of L. major; details: cited from earlier work
[9] = test system: bloodstream forms of T. brucei; details: cited from earlier work
[10] = test system: human African trypanosomiasis (HAT); details: cited from earlier work
[11] = one single dose at 50 mg/kg i.p.

SMILES | toxicity against mammalian (MRC-5) cells (in words) (MRC-5SV2 cells) | trypanocidal activity against T. cruzi (in words) [2] | trypanocidal activity against T. brucei (in words) [3] | also measured
O=C(O)[C@@H]1[O][Sb](=[O])([O][Sb]2(=[O])[O][C@H]([C@H](O)CO)[C@H](O)[C@H](C(=O)O)[O]2)[O][C@H]([C@H](O)CO)[C@@H]1O.[Na+].[Na+].[Na+] (some centres unmarked) [Pentostam] | – | – | – | IC50 [1]: 6.8 ± 0.9 µM
O=C(/C=C/c1cccnc1)/C=C/c1cccnc1 [NW321, (1E,4E)-1,5-Di(pyridin-3-yl)penta-1,4-dien-3-one Dihydrochloride] | high cytotoxicity | excellent trypanocidal activity | excellent trypanocidal activity | parasitemia [4, 11]: 0%
O=C(/C=C/c1ccncc1)/C=C/c1ccncc1 [NW319, (1E,4E)-1,5-Di(pyridin-4-yl)penta-1,4-dien-3-one Dihydrochloride] | high cytotoxicity | excellent trypanocidal activity | excellent trypanocidal activity | parasitemia [4, 11]: 0%; parasitemia ([4]; two doses over a two days-period, 12.5 mg/kg i.p.): 0%
CCCCCCCCCCCCCCCCOP(=O)([O-])OCC[N+](C)(C)C [miltefosine] | – | – | – | IC50 ([1]; Leishmania infantum, Macrophage, 120 h): 5.2 ± 0.8 µM
CN1C(c2ccncc2)CC(=O)CC1c1ccncc1 (centres unmarked) [BJ591, 1-Methyl-2,6-di(pyridine-4-yl)piperidin-4-one] | much less cytotoxicity | – | – | toxicity against mouse macrophages (in words) [5]: much less cytotoxicity
CC1CS(=O)(=O)CCN1/N=C/c1ccc([N+](=O)[O-])o1 (centres unmarked) [Nifurtimox, reference compound] | – | – | – | IC50 ([2]; Trypanosoma cruzi, MRC5, 168 h, T. cruzi Tulahuen CL on MRC-5 cells, 7 d incubation, reference drug, read-out: IC50, reduction in parasite burdens): 0.845 ± 0.2 µM
COc1cc(Br)c(O)c(/C=C/C(=O)/C=C/c2cc(OC)cc(Br)c2O)c1 [NW326.4, (1E,4E)-1,5-Bis(3-bromo-2-hydroxy-5-methoxyphenyl)penta-1,4-dien-3-one] | – | – | – | decomposition ([6]; HPLC analysis, after 5 days): 60%
COc1cc(/C=C/C(=O)CC(=O)/C=C/c2ccc(O)c(OC)c2)ccc1O [Curcumin] | – | – | – | LD50 [7]: 46.5 ± 4.9 µM; LD50 [8]: 37.6 ± 3.5 µM; cytotoxicity against bloodstream forms of T. brucei relative to procyclic forms [9]: 10 times
O=C(/C=C/c1ccc(OC(F)(F)F)cc1)/C=C/c1ccc(OC(F)(F)F)cc1 [NW254, (1E,4E)-1,5-Bis(4-trifluoromethoxy-phenyl)-penta-1,4-dien-3-one] | without any toxicity | excellent antitrypanosomal activities | excellent antitrypanosomal activities | toxicity against mouse macrophages (in words) [5]: without any toxicity
COc1ccc(O)c(/C=C/C(=O)/C=C/c2cc(OC)ccc2O)c1 [NW327.2, (1E,4E)-1,5-Bis(2-hydroxy-5-methoxyphenyl)penta-1,4-dien-3-one] | – | – | – | parasitemia [4, 11]: 0%; parasitemia ([4]; two doses over a two days-period, 25 mg/kg i.p.): 0%
Nc1nc(N)nc(Nc2ccc([As]3SCC(CO)S3)cc2)n1 (centres unmarked) [melarsoprol] | – | – | – | failure rate after treatment ([10]; late stage case of human African trypanosomiasis): under 7%; overall mortality due to the drug itself ([10]; therapy of late-stage encephalitic disease, patients): more than 5%
CN1C(c2ccccc2)CC(=O)CC1c1ccccc1 (stereo not drawn) [NW249.1, meso-1-Methyl-2,6-diphenyl-piperidin-4-one] | low toxicity | – | high trypanocidal activity | toxicity against mouse macrophages (in words) [5]: without any toxicity
O=C(/C=C/c1ccccn1)/C=C/c1ccccn1 [BJ621] | high cytotoxicity | excellent trypanocidal activity | excellent trypanocidal activity | –
COc1cc(/C=C/C(=O)/C=C/c2ccc(O)c(OC)c2)ccc1O [NW300, (1E,4E)-1,5-Bis(4-hydroxy-3-methoxyphenyl)penta-1,4-dien-3-one] | very high cytotoxicity | – | excellent antitrypanosomal activity | –
O=C1C[C@H](c2ccncc2)S[C@@H](c2ccncc2)C1 (relative stereo) [TG003A23, trans-2,6-di(pyridin-4-yl)dihydro-2H-thiopyran-4(3H)-one] | much less cytotoxicity | – | – | toxicity against mouse macrophages (in words) [5]: much less cytotoxicity
N#Cc1ccc(/C=C/C(=O)/C=C/c2ccc(C#N)cc2)cc1 [NW307.2, (1E,4E)-1,5-Bis(4-cyanophenyl)penta-1,4-dien-3-one] | without any cytotoxicity | excellent activity | excellent activity | –
O=C(/C=C/c1ccc(O)c(OC(F)(F)F)c1)/C=C/c1ccc(O)c(OC(F)(F)F)c1 [NW317, (1E,4E)-1,5-Bis(4-hydroxy-3-(trifluoromethoxy)phenyl)penta-1,4-dien-3-one] | – | – | – | light sensitivity (in words) [6]: Light-sensitive
O=C(/C=C/c1ccc(C(F)(F)F)cc1)/C=C/c1ccc(C(F)(F)F)cc1 [NW267, (1E,4E)-1,5-Bis(4-trifluoromethyl-phenyl)-penta-1,4-dien-3-one] | without any toxicity | excellent antitrypanosomal activities | excellent antitrypanosomal activities | toxicity against mouse macrophages (in words) [5]: without any toxicity
